Measurements reported in patent US5314910A, “Ester inhibitors” (Cortech Inc., priority 1993, dated 1994).

Key:
[1] = target: T1, human neutrophil elastase (HNE) (Homo sapiens, UniProt P08246); assay: Potency (I50 Determination), HNE inhibition; type: biochemical; details: substrate N-methoxysuccinyl-ala-ala-pro-val-pNA, pH 7.7, 7 minutes incubation at room temperature, 405 nm
T1 sequence (P08246 30-267): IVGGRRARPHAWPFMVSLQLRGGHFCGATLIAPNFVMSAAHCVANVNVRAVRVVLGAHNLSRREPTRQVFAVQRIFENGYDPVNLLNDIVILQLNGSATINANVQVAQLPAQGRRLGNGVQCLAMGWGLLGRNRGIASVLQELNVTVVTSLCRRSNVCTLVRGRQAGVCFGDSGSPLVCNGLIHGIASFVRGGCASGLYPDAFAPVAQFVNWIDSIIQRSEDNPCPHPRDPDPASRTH
Protocol: Potency (I50 Determination)
A) 0.075 M sodium phosphate, 20% dimethyl sulfoxide (DMSO), pH 7.7=substrate and inhibitor buffer
B) 0.075 M sodium phosphate, no DMSO, pH 7.7=inhibitor buffer
C) 10 mM human neutrophil elastase (HNE) substrate=N-methoxysuccinyl-ala-ala-pro-val-pNA in DMSO
D) 0.01 M sodium acetate, 20% DMSO, pH 5.5=enzyme buffer (dilution)
E) 0.01 M sodium acetate, pH 5.5 enzyme buffer (storage)
F) HNE (1 mg) dissolved in 1 ML of reagent E for storage at -20° C.
Make a 10 mM stock of the inhibitor in DMSO. Dilute an aliquot (10 μL) up to 1.0 mL in reagent A (100 μM). Serially dilute 100 μL of the 100 μM stock to […], 1.0, 0.1, 0.01 μM in reagent A. Apply 100 μL of the diluted material to the wells of a 96-well plate. Dilute an aliquot of reagent F 1:150 in reagent D, apply 50 μL aliquots to the indicated wells and incubate for 7 minutes at room temperature.
The HNE substrate solution is made by taking 100 μL of reagent C into 500 μL of reagent A and 400 μL of reagent B. After the 7 minutes of incubation, the substrate (50 μL) is applied to each well. The HNE catalyzed reaction is then monitored spectrophotometrically at 405 nm using an ELISA plate reader machine (UVMAX, Molecular Devices) which processes the raw data with an on-board kinetics program. The enzyme activity is plotted against different inhibitor concentrations and the […] is determined by using a curve fitting software program. Once the "screening" I50 has been approximated, a more precise I50 value can be obtained by examination of inhibitor concentrations around this value.

[2] = system: ischemia reperfusion injuries (myocardial infarct size); assay: Ischemia reperfusion injury in dogs, myocardial infarct size; type: in vivo, dog
Protocol: Experiments have been conducted on dogs to study the effect of the compounds of the invention in the treatment of ischemia reperfusion injuries.
The protocol used in the experiment referred to in the preceding paragraph involved the following:
Male mongrel dogs (13 to 17 kg) were anesthetized with sodium pentobarbital, 30 mg/kg i.v., intubated and ventilated with room air via a Harvard respirator. Lead II of the electrocardiogram and hemodynamics were monitored continuously throughout the course of the experiment. A catheter was inserted into the left carotid artery and advanced into the left ventricle for the continuous recording of left ventricular pressure. […] After 24 hr of reperfusion, the animal was reanesthetized, the thoracotomy incision opened, the heart fibrillated electrically and removed rapidly for postmortem quantification of infarct size.
Animals were randomized to receive either the test compound or a placebo (diluent) administered as an intracoronary infusion via a catheter inserted into the left circumflex coronary artery just distal to the point at which the vessel is occluded. The dose was determined on the basis of known pharmacokinetic data and the infusion was maintained throughout the 90 period of regional ischemia as well as during the 24 hour reperfusion period. […]

For `CCC(C(=O)Oc1ccc(SC)cc1)c1ccoc1` (centres unmarked) [Compound 1], the IC50 [1] was 6060 nM.
Molecule `CCC(C(=O)Oc1ccc([S+](C)[O-])cc1)c1cccs1` (centres unmarked) [Compound 8] has an IC50 [1] of 430 nM.
`CCC(C(=O)Oc1ccc([S+](C)[O-])cc1)c1ccsc1` (centres unmarked) [Compound 12, 4-Methylsulfinylphenyl 2-(3-thiophene)butyrate] showed an IC50 [1] of 130 nM.
In the case of `CCC(C(=O)Oc1ccc([S+](C)[O-])cc1)c1ccoc1` (centres unmarked) [Compound 2], the IC50 [1] is reported as 1440 nM.
Molecule `CCC(C(=O)Oc1ccc([N+](=O)[O-])cc1)c1cccn1C` (centres unmarked) [Compound 18] has an IC50 [1] of 200 nM.
`CCC(C(=O)Oc1ccc([S+](C)[O-])cc1)c1cccn1C` (centres unmarked) [Compound 16, 4-Methylsulfinylphenyl 2-(1-Methyl-2-pyrrole)butyrate] was tested, and the “reduction in infarct size compared to the controls (in words)” value [2] was “significant reduction in infarct size” and the IC50 [1] was 460 nM.
In the case of `CCC(C(=O)Oc1ccc(S(C)(=O)=O)cc1)c1cccs1` (centres unmarked) [Compound 9], the IC50 [1] is reported as 290 nM.
For `CCC(C(=O)Oc1ccc(S(C)(=O)=O)cc1)c1cccn1C` (centres unmarked) [Compound 17, 4-Methylsulfonylphenyl 2-(1-Methyl-2-pyrrole)butyrate], the IC50 [1] was 60 nM.
`CCC(C(=O)Oc1ccc(SC)cc1)c1c[nH]c2ccccc12` (centres unmarked) [Compound 21] showed an IC50 [1] of 33000 nM.
Molecule `CCC(C(=O)Oc1ccc(S(C)(=O)=O)cc1)c1ccoc1` (centres unmarked) [Compound 3] has an IC50 [1] of 470 nM.
Molecule `CCC(C(=O)Oc1ccc(SC)cc1)c1ccsc1` (centres unmarked) [Compound 11, 4-Methylmercaptophenyl 2-(3-thiophene)butyrate] has an IC50 [1] of 1500 nM.
`CCC(C(=O)Oc1ccc(SC)cc1)c1cccn1C` (centres unmarked) [Compound 15, 4-Methylmercaptophenyl 2-(1-Methyl-2-pyrrole)butyrate] gave an IC50 [1] of 6200 nM.
`CCC(C(=O)Oc1ccc([N+](=O)[O-])cc1)c1ccsc1` (centres unmarked) [Compound 14] was tested, and the IC50 [1] was 120 nM.
`CCC(C(=O)Oc1ccc([S+](C)[O-])cc1)c1coc2ccccc12` (centres unmarked) [Compound 5] showed an IC50 [1] of 420 nM.
`CCC(C(=O)Oc1ccc(S(C)(=O)=O)cc1)c1ccsc1` (centres unmarked) [Compound 13, 4-Methylsulfonylphenyl 1-(3-thiophene)butyrate] was tested, and the IC50 [1] was 50 nM.
`CCC(C(=O)Oc1ccc(S(C)(=O)=O)cc1)c1coc2ccccc12` (centres unmarked) [Compound 6] showed an IC50 [1] of 150 nM.
With `CCC(C(=O)Oc1ccc(SC)cc1)c1cccs1` (centres unmarked) [Compound 7] the IC50 [1] was 3000 nM.
`CCC(C(=O)Oc1ccc([N+](=O)[O-])cc1)c1cccs1` (centres unmarked) [Compound 10] gave an IC50 [1] of 270 nM.
Work on `CCC(C(=O)Oc1ccc(SCC(C)(C)C(=O)O)cc1)c1cccn1C` (centres unmarked) [Compound 19, 4-(2'-Carboxy-2'-methylpropylmercapto)phenyl 2-(1-Methyl-2-pyrrole)butyrate] yielded an IC50 [1] of 200 nM.
`CCC(C(=O)Oc1ccc(SC)cc1)c1coc2ccccc12` (centres unmarked) [Compound 4] gave an IC50 [1] of 3800 nM.
Work on `CCC(C(=O)Oc1ccc([S+](C)[O-])cc1)c1c[nH]c2ccccc12` (centres unmarked) [Compound 22] yielded an IC50 [1] of 1900 nM.
`CCC(C(=O)Oc1ccc([S+]([O-])CC(C)(C)C(=O)O)cc1)c1cccn1C` (centres unmarked) [Compound 20, 4-(2,-Carboxy-2'-methylpropylsulfinyl)phenyl 2-(1-Methyl-2-pyrrole)butyrate] showed an IC50 [1] of 590 nM.
